Tests used:
[1] = molecular target: T1, human PPARγ (Homo sapiens, UniProt P37231); assay: PPARγ agonistic activity: luciferase reporter assay in PPARγ:RXRα:4ERPP/CHO-K1 cells; assay type: cell-based; conditions: CHO-K1, test compound 10^−6 M; luciferase activity of control compound X (1 μM) = 100%, non-administration group = 0%
T1 construct: expressed in transfected cells
T1 sequence (P37231 1-477 isoform P37231-2): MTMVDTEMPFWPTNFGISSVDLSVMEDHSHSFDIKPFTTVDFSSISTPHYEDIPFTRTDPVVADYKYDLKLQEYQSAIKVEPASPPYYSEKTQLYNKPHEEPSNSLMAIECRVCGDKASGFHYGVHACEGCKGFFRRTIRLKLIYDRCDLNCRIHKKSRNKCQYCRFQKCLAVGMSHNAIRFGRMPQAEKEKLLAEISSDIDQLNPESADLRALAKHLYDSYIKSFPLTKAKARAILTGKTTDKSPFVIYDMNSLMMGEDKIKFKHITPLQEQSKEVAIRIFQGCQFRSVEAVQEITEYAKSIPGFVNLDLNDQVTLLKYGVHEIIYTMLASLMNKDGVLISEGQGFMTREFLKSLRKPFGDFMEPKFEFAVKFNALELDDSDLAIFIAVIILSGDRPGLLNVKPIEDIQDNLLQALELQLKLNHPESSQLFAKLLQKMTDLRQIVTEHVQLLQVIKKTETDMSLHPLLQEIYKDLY
T1 sequence (P19793 1-462 partner): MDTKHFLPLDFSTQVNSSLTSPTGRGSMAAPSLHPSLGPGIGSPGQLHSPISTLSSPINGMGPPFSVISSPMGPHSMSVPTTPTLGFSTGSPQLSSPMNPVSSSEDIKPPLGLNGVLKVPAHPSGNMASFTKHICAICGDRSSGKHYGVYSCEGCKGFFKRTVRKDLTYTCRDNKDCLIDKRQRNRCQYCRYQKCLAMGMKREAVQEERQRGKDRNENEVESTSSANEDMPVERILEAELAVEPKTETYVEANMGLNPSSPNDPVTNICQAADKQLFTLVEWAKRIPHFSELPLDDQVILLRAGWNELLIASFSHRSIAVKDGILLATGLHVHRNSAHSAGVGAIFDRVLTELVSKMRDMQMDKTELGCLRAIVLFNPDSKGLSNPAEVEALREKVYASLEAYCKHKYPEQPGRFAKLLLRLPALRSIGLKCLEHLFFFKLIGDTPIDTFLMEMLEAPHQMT
Method in brief: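 Activity is expressed relative to untreated cells (0%) and 1 μM reference compound X (100%), from luciferase luminescence. Reporter line: PPARγ:RXRα:4ERPP/CHO-K1, exposed to compound for one day at 37 °C in F12 medium containing 0.1% fatty-acid-free BSA.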

[2] = molecular target: T2, human AT1 receptor (Homo sapiens, UniProt P30556); assay: AT1 receptor antagonistic activity: [125I]-angiotensin II binding assay on human AT1 receptor-expressing CHO-K1 cellular membrane fraction; conditions: 22.5 pM [125I]-angiotensin II, 1 hr room temperature
T2 construct: expressed in transfected cells; membrane fraction
T2 sequence (P30556 1-359): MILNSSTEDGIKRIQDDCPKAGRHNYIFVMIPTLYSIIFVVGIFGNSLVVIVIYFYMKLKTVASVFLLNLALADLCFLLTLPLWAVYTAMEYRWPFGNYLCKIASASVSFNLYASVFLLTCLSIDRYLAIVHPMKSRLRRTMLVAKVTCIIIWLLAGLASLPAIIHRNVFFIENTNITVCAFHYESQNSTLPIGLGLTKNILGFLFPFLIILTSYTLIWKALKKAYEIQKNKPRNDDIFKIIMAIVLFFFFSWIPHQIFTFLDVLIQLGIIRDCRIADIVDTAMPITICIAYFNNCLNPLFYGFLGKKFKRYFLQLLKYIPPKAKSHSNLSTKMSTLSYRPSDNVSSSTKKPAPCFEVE
Method in brief: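 Competition binding used radiolabelled angiotensin II on stably transfected CHO-K1 membrane fractions in Tris pH 7.4/MgCl2 buffer, optionally containing 0.3 mg/mL fatty acid-free BSA, 1 hr at room temperature. Filtration onto GF/C separated bound tracer, and nonspecific binding was measured with candesartan.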

| activation at 1 µM [1] [%] | IC50 [2] [nM] | Structure (SMILES) |
| --- | --- | --- |
| 35 | 2.9 | CCCc1c(Cc2ccc(-c3ccccc3-c3noc(=O)[nH]3)cc2)c(=O)n(C2CCN(c3ccc(O)cc3)CC2)c2ncnn12 [Example 382, 4-[1-(4-hydroxyphenyl)piperidin-4-yl]-6-{[2′-(5-oxo-4,5-dihydro-1,2,4-oxadiazol-3-yl)biphenyl-4-yl]methyl}-7-propyl[1,2,4]triazolo[1,5-a]pyrimidin-5(4H)-one] |
| 16 | 1.9 | CCCc1c(Cc2ccc(-c3ccccc3-c3noc(=O)[nH]3)cc2)c(=O)n(C/C(=N\OCC)C(F)(F)F)c2nc(C)nn12 [Example 107, 4-[(2E)-2-(ethoxyimino)-3,3,3-trifluoropropyl]-2-methyl-6-{[2′-(5-oxo-4,5-dihydro-1,2,4-oxadiazol-3-yl)biphenyl-4-yl]methyl}-7-propyl[1,2,4]triazolo[1,5-a]pyrimidin-5(4H)-one] |
| 25 | 1.9 | CCCc1c(Cc2ccc(-c3ccccc3-c3noc(=O)[nH]3)cc2)c(=O)n(C2CCC(=NOC)CC2)c2ncnn12 (stereo not drawn) [Example 188, 4-[4-(methoxyimino)cyclohexyl]-6-{[2′-(5-oxo-4,5-dihydro-1,2,4-oxadiazol-3-yl)biphenyl-4-yl]methyl}-7-propyl[1,2,4]triazolo[1,5-a]pyrimidin-5(4H)-one] |
| 16 | 2.2 | CCCc1c(Cc2ccc(-c3ccccc3-c3noc(=O)[nH]3)cc2)c(=O)n(C2CCOCC2)c2ccnn12 [Example 269, 6-{[2′-(5-oxo-4,5-dihydro-1,2,4-oxadiazol-3-yl)biphenyl-4-yl]methyl}-7-propyl-4-(tetrahydro-2H-pyran-4-yl)pyrazolo[1,5-a]pyrimidin-5(4H)-one] |
| 26 | 1.9 | CCCc1c(Cc2ccc(-c3ccccc3-c3noc(=O)[nH]3)cc2F)c(=O)n([C@H]2CC[C@H](OCC(C)(C)O)CC2)c2ncnn12 [Example 233, 6-{[3-fluoro-2′-(5-oxo-4,5-dihydro-1,2,4-oxadiazol-3-yl)biphenyl-4-yl]methyl}-4-[trans-4-(2-hydroxy-2-methylpropoxy)cyclohexyl]-7-propyl[1,2,4]triazolo[1,5-a]pyrimidin-5(4H)-one] |
| 26 | 2.5 | CCCc1c(Cc2ccc(-c3ccccc3-c3noc(=O)[nH]3)cc2F)c(=O)n([C@H]2CC[C@H](OC3(C(C)(C)O)CC3)CC2)c2ncnn12 [Example 362, 6-{[3-fluoro-2′-(5-oxo-4,5-dihydro-1,2,4-oxadiazol-3-yl)biphenyl-4-yl]methyl}-4-(trans-4-{[1-(1-hydroxy-1-methylethyl)cyclopropyl]oxy}cyclohexyl)-7-propyl[1,2,4]triazolo[1,5-a]pyrimidin-5(4H)-one] |
| 31 | 2.1 | CCCc1c(Cc2ccc(-c3ccccc3-c3noc(=O)[nH]3)cc2)c(=O)n(C2CCC3(CC2)OCC(CO)O3)c2ncnn12 (stereo not drawn) [Example 294, 4-[2-(hydroxymethyl)-1,4-dioxaspiro[4.5]dec-8-yl]-6-{[2′-(5-oxo-4,5-dihydro-1,2,4-oxadiazol-3-yl)biphenyl-4-yl]methyl}-7-propyl[1,2,4]triazolo[1,5-a]pyrimidin-5(4H)-one] |
| 18 | 1.3 | CCCc1c(Cc2ccc(-c3ccccc3-c3noc(=O)[nH]3)cc2)c(=O)n(CC(C)(C)C)c2nc(C)nn12 [Example 2, 4-(2,2-dimethylpropyl)-2-methyl-6-{[2′-(5-oxo-4,5-dihydro-1,2,4-oxadiazol-3-yl)biphenyl-4-yl]methyl}-7-propyl[1,2,4]triazolo[1,5-a]pyrimidin-5(4H)-one] |
| 8 | 1.3 | CCCCc1c(Cc2ccc(-c3ccccc3-c3noc(=O)[nH]3)cc2)c(=O)n([C@@H]2C[C@@H](C)O[C@@H](C)C2)c2ncnn12 [Example 138, 7-butyl-4-[(2R,4s,6S)-2,6-dimethyltetrahydro-2H-pyran-4-yl]-6-{[2′-(5-oxo-4,5-dihydro-1,2,4-oxadiazol-3-yl)biphenyl-4-yl]methyl}[1,2,4]triazolo[1,5-a]pyrimidin-5(4H)-one] |

— patent US8283353B2, “Fused ring compound and use thereof” (Takeda Pharmaceutical Company Limited, priority 2009, dated 2012)
